This assay deals with T1, human V1aR (Homo sapiens, UniProt P37288).
T1 construct: expressed in transfected cells
Kind of assay: Agonist activity at vasopressin V1a receptors, cell-based FLIPR calcium assay. The note with it: for Emax: read-out: Efficacy Avg. (%). As for the experimental part:
Efficacy (% MPE) is also determined as the percentage of maximal possible effect. This agonist assay utilizes cells from a stable cell line (HEK-flpin) expressing the vasopressin V1a receptor. Intracellular calcium increase in response to agonist is measured through real-time fluorescence of an intracellular calcium-sensitive dye. Cells are exposed to varying concentrations of test agonist compounds whereupon release of intracellular calcium is measured to determine the agonist potency and efficacy.
The cell line stably expresses the lacZ-Zeocin™ fusion gene and is designed for use with the Flp-In™ expression vector containing the gene of interest and the Flp recombinase expression plasmid, pOG44. The cell line contains a single integrated Flp Recombination Target (FRT) site from pFRT/lacZeo or pFRT/lacZeo2. To generate the HEK-flpin cell line stably expressing the human V1aR, the cells were co-transfected with the Flp-In™ expression vector containing the gene of interest (pcDNA5/FRT-hV1aR) and the Flp recombinase expression plasmid pOG44. Flp recombinase mediates insertion of the Flp-In™ expression vector into the genome at the integrated FRT site through site-specific DNA recombination. Stable cell lines expressing the hV1aR from the Flp-In™ expression vector can be generated by selection using hygromycin B. See Life Technologies/Invitrogen manual, Growth and Maintenance of Flp-In™ Cell Lines, Version E, published Feb.
Efficacy of this compound was set to be 100%. A stock solution of 5 mM was made up in DMSO and stored at −20° C.
HEK-flpin-hV1aR, cmcqV1aR, dV1aR and pV1aR cells were maintained in DMEM containing 10% (v/v) FBS-HI, 4 mM GlutaMAX™-I, 25 μg/mL Hygromycin B at 37° C. under 5% CO2 in a humidified atmosphere. Subculture was achieved by splitting semi-confluent cultures 1:3 to 1:6.
All compounds were made up in 100% DMSO at 10 mM stock concentrations and stored at −20° C. The compounds were allowed to thaw just before the assay. […] Typical dilution procedure of 10× final assay concentration involved a 1:100 top dilution (e.g., 2 μl Stock into 198 μl dilution medium) followed by half-log serial dilutions (e.g., 25.3 μl into 54.7 μl dilution medium supplemented with 1% DMSO (v/v)). (Dilution media consisted of phenol-red free DMEM containing 10% FBS-HI, 4 mM GlutaMAX™-I). […] The final DMSO concentration in the assay was 0.1%.
Loading Buffer was prepared by dissolving 1 vial of Calcium 4 Assay reagent in 100 mL of 1× HBSS-20 mM Hepes buffer.
The cells were loaded with Loading Buffer as follows. Cell plates were removed from the incubator and 20 μl of Loading Buffer containing probenecid (2.5 mM) was added to each well. The cells were incubated for 1 hr at 37° C. under 5% CO2 in a humidified atmosphere. The calcium image was obtained as follows.
The cell plates were transferred to FLIPR Tetra, along with a 384 well V-bottom plate pre-loaded with half-log concentrations of test compounds at 10× final test concentrations. The remaining steps of the assay were carried forward by FLIPR Tetra. A baseline reading was taken at 1-second (s) intervals for 5s followed by the addition of 5 μl of 10× compounds (test, reference, or Blank). The agonist-induced fluorescence signal was then measured for 180 s with initial 120 readings at 1-second intervals followed by 20 readings at 3-second intervals. Overall, each well in the FLIPR assay was composed of the following components in a total volume of 50 μl: 20 μl cells; 20 μl Calcium 4 Loading Buffer; […] 10× test or reference compound.

Each structure is given as a SMILES string. Where two headings read alike, the source gives them in different places. Starred links: 1 amine or outer side, 2 acyl side, 3 side chain; linkers in the order of their positions; H or OH if unused. Positions of bridges follow the written chain, without caps; N, C: chain ends. Non-standard residues stand in square brackets, D forms with d. Residues, ends and D or L forms follow the SMILES beside them. Chains are numbered I, II in the order given. *: point of attachment. Phe(4-Cl) = N[C@@H](Cc1ccc(Cl)cc1)C(=O)O; X2 = N=C(N)N[C@@H](CCCCN[*:1])C(=O)[*:2]; dPhe(4-Cl) = N[C@H](Cc1ccc(Cl)cc1)C(=O)O; isoGln = NC(=O)[C@H](CCC(=O)[*:2])N[*:1]; εLys = N[C@@H](CCCCN[*:1])C(=O)[*:2]; 3Pal = N[C@@H](Cc1cccnc1)C(=O)O; Orn = NCCC[C@H](N)C(=O)O; Dab = NCC[C@H](N)C(=O)O; PhAc = O=C(Cc1ccccc1)*

T1 sequence (P37288 whole entry): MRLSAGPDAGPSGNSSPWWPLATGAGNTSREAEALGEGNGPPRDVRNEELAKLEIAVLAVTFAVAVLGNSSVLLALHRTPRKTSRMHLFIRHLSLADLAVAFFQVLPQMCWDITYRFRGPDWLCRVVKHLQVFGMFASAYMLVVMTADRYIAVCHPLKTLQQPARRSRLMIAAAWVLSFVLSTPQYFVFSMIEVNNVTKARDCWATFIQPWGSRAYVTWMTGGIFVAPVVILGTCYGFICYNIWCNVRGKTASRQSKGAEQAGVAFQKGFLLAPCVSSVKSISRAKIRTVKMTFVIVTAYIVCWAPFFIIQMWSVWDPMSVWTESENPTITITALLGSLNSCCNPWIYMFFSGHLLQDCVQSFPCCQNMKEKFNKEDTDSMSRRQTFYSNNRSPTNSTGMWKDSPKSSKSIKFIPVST

By EC50 is commonly meant the concentration at which the effect is half-maximal. For `CC[C@H](C)[C@@H]1NC(=O)[C@H](Cc2ccccc2)NC(=O)[C@@H](N)CSSC[C@@H](C(=O)N2CCC[C@H]2C(=O)N[C@@H](CCCNC(=O)[C@@H](N)CCCCNC(=O)CC[C@H](NC(=O)[C@H](CCCNC(=N)N)NC(=O)[C@@H]2CCCN2C(=O)[C@H](CCCNC(=N)N)NC(=O)[C@H](CC(N)=O)NC(=O)[C@H](Cc2cccnc2)NC(=O)[C@H](Cc2ccccc2)NC(=O)[C@@H](Cc2ccc(OC)cc2)NC(=O)Cc2ccccc2)C(N)=O)C(=O)NCC(N)=O)NC(=O)[C@H](CC(N)=O)NC(=O)[C@H](CCC(N)=O)NC1=O` [Compound 24] (I: H-CFIQNCP[Orn]G-NH2 / II: PhAc-[dY](Me)F[3Pal]NRPR[isoGln][εLys]; disulfide I:1-I:6; amide I:8-II:C), the EC50 worked out at 2.3 nM and the Emax was found to be 33%.

Turning to `CC[C@H](C)[C@@H]1NC(=O)[C@H](Cc2ccccc2)NC(=O)[C@@H](N)CSSC[C@@H](C(=O)N2CCC[C@H]2C(=O)N[C@@H](CCCNC(=O)[C@@H](N)CCCCNC(=O)CC[C@H](NC(=O)[C@H](CCCNC(=N)N)NC(=O)[C@@H]2CCCN2C(=O)[C@H](CCCNC(=N)N)NC(=O)[C@H](CC(N)=O)NC(=O)[C@H](CCC(N)=O)NC(=O)[C@H](Cc2ccccc2)NC(=O)[C@@H](Cc2ccc(Cl)cc2)NC(=O)Cc2ccccc2)C(N)=O)C(=O)NCC(N)=O)NC(=O)[C@H](CC(N)=O)NC(=O)[C@H](CCC(N)=O)NC1=O` [Compound 25] (I: H-CFIQNCP[Orn]G-NH2 / II: PhAc-[dPhe(4-Cl)]FQNRPR[isoGln][εLys]; disulfide I:1-I:6; amide I:8-II:C), the concentration giving a half-maximal response (EC50) was 1.4 nM and the Emax is 49%.

For `CC[C@H](C)[C@@H]1NC(=O)[C@H](Cc2ccccc2)NC(=O)[C@@H](N)CSSC[C@@H](C(=O)N2CCC[C@H]2C(=O)N[C@@H](CCCNC(=O)[C@H](CCCCNC(=O)CC[C@H](NC(=O)[C@H](CCCNC(=N)N)NC(=O)[C@@H]2CCCN2C(=O)[C@H](CCCNC(=N)N)NC(=O)[C@H](CC(N)=O)NC(=O)[C@H](CCC(N)=O)NC(=O)[C@H](Cc2ccccc2)NC(=O)[C@@H](Cc2ccc(OC)cc2)NC(=O)Cc2ccccc2)C(N)=O)NC(=N)N)C(=O)NCC(N)=O)NC(=O)[C@H](CC(N)=O)NC(=O)[C@H](CCC(N)=O)NC1=O` [Compound 26] (I: H-CFIQNCP[Orn]G-NH2 / II: PhAc-[dY](Me)FQNRPR[isoGln][X2]; disulfide I:1-I:6; amide I:8-II:C), the half-maximal effective concentration (EC50) came out at 0.93 nM and the Emax came out at 32%.

As for `CC[C@H](C)[C@@H]1NC(=O)[C@H](Cc2ccccc2)NC(=O)[C@@H](N)CSSC[C@@H](C(=O)N2CCC[C@H]2C(=O)N[C@@H](CCCNC(=O)[C@@H](N)CCCCNC(=O)CC[C@H](NC(=O)[C@H](CCCNC(=N)N)NC(=O)[C@@H]2CCCN2C(=O)[C@H](CCCNC(=N)N)NC(=O)[C@H](CC(N)=O)NC(=O)[C@H](CCC(N)=O)NC(=O)[C@H](Cc2ccccc2)NC(=O)[C@H](Cc2ccc(Cl)cc2)NC(=O)Cc2ccccc2)C(N)=O)C(=O)NCC(N)=O)NC(=O)[C@H](CC(N)=O)NC(=O)[C@H](CCC(N)=O)NC1=O` [Compound 27] (I: H-CFIQNCP[Orn]G-NH2 / II: PhAc-[Phe(4-Cl)]FQNRPR[isoGln][εLys]; disulfide I:1-I:6; amide I:8-II:C), the EC50 came to 1 nM and the Emax turned out to be 70%.

`CC[C@H](C)[C@@H]1NC(=O)[C@H](Cc2ccccc2)NC(=O)[C@@H](N)CSSC[C@@H](C(=O)N2CCC[C@H]2C(=O)N[C@@H](CCCNC(=O)[C@@H](N)CCCCNC(=O)CC[C@H](NC(=O)[C@H](CCCNC(=N)N)NC(=O)[C@@H]2CCCN2C(=O)[C@H](C)NC(=O)[C@H](CC(N)=O)NC(=O)[C@H](CCC(N)=O)NC(=O)[C@H](Cc2ccccc2)NC(=O)[C@@H](Cc2ccc(OC)cc2)NC(=O)Cc2ccccc2)C(N)=O)C(=O)NCC(N)=O)NC(=O)[C@H](CC(N)=O)NC(=O)[C@H](CCC(N)=O)NC1=O` [Compound 28] (I: H-CFIQNCP[Orn]G-NH2 / II: PhAc-[dY](Me)FQNAPR[isoGln][εLys]; disulfide I:1-I:6; amide I:8-II:C): the half-maximal effective concentration (EC50) was determined as 1.2 nM and the Emax came out at 44%.

Consider `CC[C@H](C)[C@@H]1NC(=O)[C@H](Cc2ccccc2)NC(=O)[C@@H](N)CSSC[C@@H](C(=O)N2CCC[C@H]2C(=O)N[C@@H](CCNC(=O)[C@H](CCCCNC(=O)CC[C@H](NC(=O)[C@H](CCCNC(=N)N)NC(=O)[C@@H]2CCCN2C(=O)[C@H](C)NC(=O)[C@H](CC(N)=O)NC(=O)[C@H](CCC(N)=O)NC(=O)[C@H](Cc2ccccc2)NC(=O)[C@@H](Cc2ccc(OC)cc2)NC(=O)Cc2ccccc2)C(N)=O)NC(=N)N)C(=O)NCC(N)=O)NC(=O)[C@H](CC(N)=O)NC(=O)[C@H](CCC(N)=O)NC1=O` [Compound 29] (I: H-CFIQNCP[Dab]G-NH2 / II: PhAc-[dY](Me)FQNAPR[isoGln][X2]; disulfide I:1-I:6 (inferred); amide I:8-II:C (inferred)), for which the EC50 worked out at 1.2 nM and the Emax is 39%.

Consider `CC[C@H](C)[C@@H]1NC(=O)[C@H](Cc2ccccc2)NC(=O)[C@@H](O)CSSC[C@@H](C(=O)N2CCC[C@H]2C(=O)N[C@@H](CCNC(=O)[C@@H](N)CCCCNC(=O)CC[C@H](NC(=O)[C@H](CCCNC(=N)N)NC(=O)[C@@H]2CCCN2C(=O)[C@H](C)NC(=O)[C@H](CC(N)=O)NC(=O)[C@H](CCC(N)=O)NC(=O)[C@H](Cc2ccccc2)NC(=O)[C@@H](Cc2ccc(OC)cc2)NC(=O)Cc2ccccc2)C(N)=O)C(=O)NCC(N)=O)NC(=O)[C@H](CC(N)=O)NC(=O)[C@H](CCC(N)=O)NC1=O` [Compound 30], for which the concentration giving a half-maximal response (EC50) was 1.1 nM and the Emax is 50%.

For the molecule `CC[C@H](C)[C@@H]1NC(=O)[C@H](Cc2ccccc2)NC(=O)[C@@H](O)CSSC[C@@H](C(=O)N2CCC[C@H]2C(=O)N[C@@H](CCNC(=O)[C@@H](N)CCCCNC(=O)CC[C@H](NC(=O)[C@H](CCCNC(=N)N)NC(=O)[C@@H]2CCCN2C(=O)[C@H](CCCNC(=N)N)NC(=O)[C@H](CC(N)=O)NC(=O)[C@H](CCC(N)=O)NC(=O)[C@H](Cc2ccccc2)NC(=O)[C@@H](Cc2ccc(OC)cc2)NC(=O)Cc2ccccc2)C(N)=O)C(=O)NCC(N)=O)NC(=O)[C@H](CC(N)=O)NC(=O)[C@H](CCC(N)=O)NC1=O` [Compound 31], the EC50 stood at 0.83 nM and the Emax is 63%.

As to `CC[C@H](C)[C@@H]1NC(=O)[C@H](Cc2ccccc2)NC(=O)[C@@H](O)CSSC[C@@H](C(=O)N2CCC[C@H]2C(=O)N[C@@H](CCNC(=O)[C@@H](N)CCCCNC(=O)CC[C@H](NC(=O)[C@H](CCCNC(=N)N)NC(=O)[C@@H]2CCCN2C(=O)[C@H](CCCCN)NC(=O)[C@H](CC(N)=O)NC(=O)[C@H](CCC(N)=O)NC(=O)[C@H](Cc2ccccc2)NC(=O)[C@@H](Cc2ccc(OC)cc2)NC(=O)Cc2ccccc2)C(N)=O)C(=O)NCC(N)=O)NC(=O)[C@H](CC(N)=O)NC(=O)[C@H](CCC(N)=O)NC1=O` [Compound 32], the EC50 amounted to 1 nM and the Emax came to 56%.

Consider `CC[C@H](C)[C@@H]1NC(=O)[C@H](Cc2ccccc2)NC(=O)[C@@H](O)CSSC[C@@H](C(=O)N2CCC[C@H]2C(=O)N[C@@H](CCNC(=O)[C@@H](N)CCCCNC(=O)CC[C@H](NC(=O)[C@H](CCCNC(=N)N)NC(=O)[C@@H]2CCCN2C(=O)[C@H](CCCCN)NC(=O)[C@H](CC(N)=O)NC(=O)[C@H](CCC(N)=O)NC(=O)[C@H](Cc2ccccc2)NC(=O)[C@@H](Cc2ccc(OC)cc2)NC(=O)CC(C)C)C(N)=O)C(=O)NCC(N)=O)NC(=O)[C@H](CC(N)=O)NC(=O)[C@H](CCC(N)=O)NC1=O` [Compound 33], for which the Emax stood at 50%. Where the note is “HEK-flpin cells stably expressing hV1aR, intracellular calcium fluorescence, averaged, read-out: EC50 (Avg)”, the EC50 came out at 1.1 nM.
